Assay results as given in patent US8822484B2, “Fused thiazolo and oxazolo pyrimidinones” (Torrent Pharmaceuticals Limited, priority 2009, dated 2014).

Assays:
Format in all cases: cell-based
erythropoietin = test: In vitro erythropoietin induction (ELISA of culture supernatant); conditions: Hep3B cell line, relative to vehicle control; for EPO fold induction: 16 hours
Description: Hep3B cell line (ATCC HB8064) was employed. Induction of erythropoietin was carried out for the indicated dose of compounds for 16 hours duration. At the end of 16 hours, cell culture medium was collected and centrifuged to remove any debris. Supernatant obtained was analyzed for erythropoietin by ELISA (R&D systems, USA). The results were expressed as fold induction as compared to vehicle control.

VEGF = test: In vitro induction of vascular endothelial growth factor (ELISA of culture supernatant); conditions: Hep3B cell line, 200 uM, 16 hours, relative to vehicle control
Description: Hep3B cell line (ATCC HB8064) was employed. […] Supernatant obtained was analyzed for VEGF by ELISA (R&D systems, USA).

adrenomedullin mRNA = test: In vitro induction of adrenomedullin (mRNA, real-time PCR); conditions: Hep3B cell line, 200 uM, 6 hours, normalized to 18S rRNA, relative to vehicle control
Description: Hep3B cell line (ATCC HB8064) was employed. […] At the end of 6 hours, cells were lysed and total RNA was isolated. Expression of adrenomedullin mRNA along-with expression of 18S rRNA was monitored by real-time PCR. Adrenomedullin mRNA expression was normalized relative to the expression of 18S rRNA. The results were expressed as fold induction of adrenomedullin mRNA relative to vehicle treated control.

SMILES	EPO fold induction (erythropoietin; 200 uM)	also measured
CC(C)[C@H](NC(=O)c1c(O)nc2sc3c(n2c1=O)CCC(C)(C)C3)C(=O)O (single isomer, unassigned) [Compound 43, 2-[(2-Hydroxy-7,7-dimethyl-4-oxo-5,6,7,8-tetrahydro-4H-9-thia-1,4a-diaza-fluorene-3-carbonyl)-amino]-3-methyl-butyric acid (L-isomer)]	+ (<2 fold)	–
C[C@@H](NC(=O)c1c(O)nc2sc3c(n2c1=O)CCC(C)(C)C3)C(=O)O (single isomer, unassigned) [Compound 44, 2-[(2-Hydroxy-7,7-dimethyl-4-oxo-5,6,7,8-tetrahydro-4H-9-thia-1,4a-diaza-fluorene-3-carbonyl)-amino]-propionic acid (D-isomer)]	+ (<2 fold)	–
CC1(C)CCc2c(sc3nc(O)c(C(=O)N[C@H](C(=O)O)c4ccccc4)c(=O)n23)C1 (single isomer, unassigned) [Compound 55, [(2-Hydroxy-7,7-dimethyl-4-oxo-5,6,7,8-tetrahydro-4H-9-thia-1,4a-diaza-fluorene-3-carbonyl)-amino]-phenyl-acetic acid, L-isomer]	+ (<2 fold)	–
O=C(O)CNC(=O)c1c(O)nc2sc3c(n2c1=O)CCC3 [Compound 11, [(2-Hydroxy-4-oxo-7,8-dihydro-4H,6H-cyclopenta[4,5]thiazolo[3,2-a]pyrimidine-3-carbonyl)-amino]-acetic acid]	+++ (5-8 fold)	–
O=C(O)CCNC(=O)c1c(O)nc2sc3c(n2c1=O)CCC3 [Compound 14, 3-[(2-Hydroxy-4-oxo-7,8-dihydro-4H,6H-cyclopenta[4,5]thiazolo[3,2-a]pyrimidine-3-carbonyl)-amino]-propionic acid]	++ (2-4 fold)	–
COc1cc(OC)cc(C(=O)N2CCc3c(sc4nc(O)c(C(=O)NCC(=O)O)c(=O)n34)C2)c1 [Compound 41, {[7-(3,5-Dimethoxy-benzoyl)-2-hydroxy-4-oxo-5,6,7,8-tetrahydro-4H-9-thia-1,4a,7-triaza-fluorene-3-carbonyl]-amino}-acetic acid]	–	fold induction at 200 µM (erythropoietin; Homo sapiens, Hep3B, 16 h, 200 uM, read-out: EPO fold induction): 2 to 4
CC1(C)CCc2c(sc3nc(O)c(C(=O)NCC(=O)[O-])c(=O)n23)C1.CC1(C)CCc2c(sc3nc(O)c(C(=O)NCC(=O)[O-])c(=O)n23)C1.[Na+].[Na+] [Compound 80, [(2-Hydroxy-7,7-dimethyl-4-oxo-5,6,7,8-tetrahydro-4H-9-thia-1,4a-diaza-fluorene-3-carbonyl)-amino]-acetic acid, Disodium salt]	++++ (9-16 fold)	–
O=C([O-])CNC(=O)c1c(O)nc2sc3c(n2c1=O)CCCCC3.O=C([O-])CNC(=O)c1c(O)nc2sc3c(n2c1=O)CCCCC3.[Na+].[Na+] [Compound 82, [(2-Hydroxy-4-oxo-6,7,8,9-tetrahydro-4H,5H-10-thia-1,4a-diaza-benzo[a]azulene-3-carbonyl)-amino]-acetic acid, Disodium salt]	–	EPO fold induction (erythropoietin; 50 uM): ++++ (9-16 fold); VEGF (Fold induction) (VEGF): ++ (2-4 fold induction of VEGF); Adrenomedullin mRNA (fold induction) (adrenomedullin mRNA): +++ (5-8 fold)
